From patent US20240116985A1, “STAPLED PEPTIDES AND METHODS THEREOF” (priority 2020, published 2024)

Molecular target: T1, full-length beta-Catenin (Uniprot ID P35222) (Homo sapiens, UniProt P35222)
T1 construct: 10 nM full-length beta-Catenin (Uniprot ID P35222)
T1 sequence (P35222 1-781): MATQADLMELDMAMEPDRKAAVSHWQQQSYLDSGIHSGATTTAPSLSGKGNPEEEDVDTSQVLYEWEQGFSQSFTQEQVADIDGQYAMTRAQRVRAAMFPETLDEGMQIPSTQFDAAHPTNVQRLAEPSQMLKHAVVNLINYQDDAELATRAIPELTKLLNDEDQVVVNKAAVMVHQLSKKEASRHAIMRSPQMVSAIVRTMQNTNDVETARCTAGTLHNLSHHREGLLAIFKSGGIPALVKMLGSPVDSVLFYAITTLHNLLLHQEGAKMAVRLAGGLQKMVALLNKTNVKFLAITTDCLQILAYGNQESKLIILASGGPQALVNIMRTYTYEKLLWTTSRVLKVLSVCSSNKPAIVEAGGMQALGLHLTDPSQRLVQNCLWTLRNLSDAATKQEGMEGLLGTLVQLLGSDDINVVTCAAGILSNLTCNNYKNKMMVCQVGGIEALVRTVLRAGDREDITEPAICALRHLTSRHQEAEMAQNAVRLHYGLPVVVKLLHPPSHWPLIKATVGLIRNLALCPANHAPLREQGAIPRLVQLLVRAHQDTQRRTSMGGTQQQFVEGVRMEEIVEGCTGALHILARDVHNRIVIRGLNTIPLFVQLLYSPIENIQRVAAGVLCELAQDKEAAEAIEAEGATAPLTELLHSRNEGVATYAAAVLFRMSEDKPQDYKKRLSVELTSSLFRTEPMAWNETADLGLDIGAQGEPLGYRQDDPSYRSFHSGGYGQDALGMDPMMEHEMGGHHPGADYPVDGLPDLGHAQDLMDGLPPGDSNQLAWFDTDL
Assay: Fluorescence polarization IC50 (beta-catenin / 5FAM-TCF4 10-53 competition)
Type: binding
Conditions: fluorescence polarization; read-out: beta-Catenin FP IC50

| SMILES | IC50 |
| --- | --- |
| CC(=O)N1CCC[C@]12CC=CCCCC1(CCCC=CCCCOC(=O)N3CC[C@@](C(=O)N[C@@H](Cc4ccsc4)C(=O)N[C@@H](Cc4csc5ccccc45)C(=O)N[C@@H](C)C(N)=O)(C3)NC(=O)[C@H]([C@@H](C)O)NC(=O)[C@H](Cc3ccccc3)NC(=O)[C@H](C)NC(=O)[C@H](C)NC(=O)[C@H]([C@@H](C)O)NC(=O)[C@H](CC(N)=O)NC1=O)NC(=O)[C@H](CC(C)(C)C)NC(=O)[C@H](CC(=O)O)NC2=O (stereo partly drawn) [I-2334, Ac-PL3-Asp-Npg-B5-Asn-Thr-Ala-Ala-Phe-Thr-PyrS2-3Thi-BztA-Ala-NH2] | 656 nM |
| CC(=O)N1CCC[C@]12CC=CCCCC1(CCCC=CCCCCOC(=O)N3CC(C(=O)N[C@@H](Cc4ccsc4)C(=O)N[C@@H](Cc4csc5ccccc45)C(=O)N[C@@H](CCC(N)=O)C(N)=O)(C3)NC(=O)[C@H](CC(C)C)NC(=O)[C@H](Cc3ccccc3)NC(=O)[C@H](C)NC(=O)C(C)(C)NC(=O)[C@H](Cc3cccc(C(=O)O)c3)NC(=O)[C@H](CC(=O)O)NC1=O)NC(=O)[C@H](CC(C)(C)C)NC(=O)[C@H](CC(=O)O)NC2=O (stereo partly drawn) [I-2618, Ac-PL3-Asp-Npg-B5-Asp-3COOHF-Aib-Ala-Phe-Leu-Az3-3Thi-BztA-Gln-NH2] | 77 nM |
| CC(=O)N1CCC[C@]12CC=CCCCC1(CCCC=CCCCOC(=O)N3CC[C@@](C(=O)N[C@@H](Cc4ccsc4)C(=O)N[C@@H](Cc4csc5ccccc45)C(=O)N[C@@H](CCC(N)=O)C(N)=O)(C3)NC(=O)[C@H](CC(C)C)NC(=O)[C@H](Cn3cc(CN4CCS(=O)(=O)CC4)nn3)NC(=O)[C@H](C)NC(=O)[C@H](C)NC(=O)[C@H](CN(CC(=O)O)CC(F)(F)F)NC(=O)[C@H](CC(=O)O)NC1=O)NC(=O)[C@H](CC(C)(C)C)NC(=O)[C@H](CC(=O)O)NC2=O (stereo partly drawn) [I-1860, Ac-PL3-Asp-Npg-B5-Asp-TfeGA-Ala-Ala-[SO2MorphCH2]TriAzDap-Leu-PyrS2-3Thi-BztA-Gln-NH2] | 512 nM |
| CC(=O)N1CCC[C@]12CC=CCCCC1(CCCC=CCCCOC(=O)N3CC[C@@](C(=O)N[C@@H](Cc4ccsc4)C(=O)N[C@@H](Cc4csc5ccccc45)C(=O)N[C@@H](CCC(N)=O)C(N)=O)(C3)NC(=O)[C@H](CC(C)C)NC(=O)[C@H](Cc3ccccc3)NC(=O)[C@H](C)NC(=O)[C@H](C)NC(=O)[C@H](CC(=O)O)NC(=O)[C@H](CC(=O)O)NC1=O)NC(=O)[C@H](CC(C)(C)C)NC(=O)[C@H](CO)NC2=O (stereo partly drawn) [I-1223, Ac-PL3-Ser-Npg-B5-Asp-Asp-Ala-Ala-Phe-Leu-PyrS2-3Thi-BztA-Gln-NH2] | 550 nM |
| CC(=O)N1CCC[C@]12CCCCCCC1(CCCCCCCCOC(=O)N3CC[C@@](C(=O)N[C@@H](Cc4ccsc4)C(=O)N[C@@H](Cc4csc5ccccc45)C(=O)N[C@@H](CCC(N)=O)C(N)=O)(C3)NC(=O)[C@H](CC(C)C)NC(=O)[C@H](Cc3ccccc3)NC(=O)[C@H](C)NC(=O)[C@H](C)NC(=O)[C@H](CN(CC(=O)O)CC(F)(F)F)NC(=O)[C@H](CC(=O)O)NC1=O)NC(=O)[C@H](CC(C)(C)C)NC(=O)[C@H](CC(=O)O)NC2=O (stereo partly drawn) [I-1605, Ac-PL3-Asp-Npg-B5-Asp-TfeGA-Ala-Ala-Phe-Leu-PyrS2-3Thi-BztA-Gln-NH2] | 214 nM |
| CC(=O)N1CCC[C@]12CC=CCCCC1(CCCC=CCCCCOC(=O)N3CC(C(=O)N[C@@H](Cc4ccsc4)C(=O)N[C@@H](Cc4csc5ccccc45)C(=O)N[C@@H](CCC(N)=O)C(N)=O)(C3)NC(=O)[C@H](CC(C)C)NC(=O)[C@H](Cc3ccccc3)NC(=O)[C@H](C)NC(=O)[C@H](C)NC(=O)[C@H](Cc3cccc(C(=O)O)c3)NC(=O)[C@H](CC(=O)O)NC1=O)NC(=O)[C@H](CC(C)(C)C)NC(=O)[C@H](CC(=O)O)NC2=O (stereo partly drawn) [I-2612, Ac-PL3-Asp-Npg-B5-Asp-3COOHF-Ala-Ala-Phe-Leu-Az3-3Thi-BztA-Gln-NH2] | 85 nM |
| CC(=O)N1CCC[C@]12CC=CCCCC1(CCCC=CCCCOC(=O)N3CC[C@@](C(=O)N[C@@H](Cc4ccsc4)C(=O)N[C@@H](Cc4csc5ccccc45)C(=O)N[C@@H](CCC(N)=O)C(N)=O)(C3)NC(=O)[C@H](CC(N)=O)NC(=O)[C@H](Cc3ccccc3)NC(=O)[C@H](C)NC(=O)[C@H](C)NC(=O)[C@H](CC(N)=O)NC(=O)[C@H](CC(C)C)NC1=O)NC(=O)[C@H](CC(C)(C)C)NC(=O)[C@H](CC(=O)O)NC2=O (stereo partly drawn) [I-1562, Ac-PL3-Asp-Npg-B5-Leu-Asn-Ala-Ala-Phe-Asn-PyrS2-3Thi-BztA-Gln-NH2] | 5020 nM |
| CC(=O)N1CCC[C@]12CC=CCCCC1(CCCC=CCCCOC(=O)N3CC[C@@](C(=O)N[C@@H](Cc4ccsc4)C(=O)N[C@@H](Cc4csc5ccccc45)C(=O)N[C@@H](CCC(N)=O)C(N)=O)(C3)NC(=O)[C@H](CC(C)C)NC(=O)[C@H](Cc3ccccc3)NC(=O)[C@H](C)NC(=O)[C@H](C)NC(=O)[C@H](CC(=O)S)NC(=O)[C@H](CC(=O)O)NC1=O)NC(=O)[C@H](CC(C)(C)C)NC(=O)[C@H](CC(=O)O)NC2=O (stereo partly drawn) [I-1946, Ac-PL3-Asp-Npg-B5-Asp-AspSH-Ala-Ala-Phe-Leu-PyrS2-3Thi-BztA-Gln-NH2] | 874 nM |
| CC(=O)N1CCC[C@]12CC=CCCCC1(CCCC=CCCCOC(=O)N3CC[C@@](C(=O)N[C@@H](Cc4ccccc4)C(=O)N[C@@H](Cc4csc5ccccc45)C(=O)N[C@@H](CCC(N)=O)C(N)=O)(C3)NC(=O)[C@H](CC3CCCCC3)NC(=O)[C@H](Cc3ccccc3)NC(=O)[C@H](C)NC(=O)[C@H](CCCCNC(C)C)NC(=O)[C@H](CCC(N)=O)NC(=O)[C@H](CC(=O)O)NC1=O)NC(=O)[C@H](CC(C)(C)C)NC(=O)[C@H](CC(N)=O)NC2=O (stereo partly drawn) [I-1650, Ac-PL3-Asn-Npg-B5-Asp-Gln-iPrLys-Ala-Phe-Cha-PyrS2-Phe-BztA-Gln-NH2] | 1680 nM |
| CC(=O)N1CCC[C@]12CC=CCCCC1(CCCC=CCCCOC(=O)N3CC[C@@](C(=O)N[C@@H](Cc4ccsc4)C(=O)N[C@@H](Cc4csc5ccccc45)C(=O)N[C@@H](CCC(N)=O)C(N)=O)(C3)NC(=O)[C@H](CC(C)C)NC(=O)[C@H](Cc3ccccc3)NC(=O)[C@H](CCCCNC(=O)C34CC5(C)CC(C)(CC(C)(C5)C3)C4)NC(=O)[C@H](C)NC(=O)[C@H](CC(=O)O)NC(=O)[C@H](CC(=O)O)NC1=O)NC(=O)[C@H](CC(C)(C)C)NC(=O)[C@H](CC(=O)O)NC2=O (stereo partly drawn) [I-1475, Ac-PL3-Asp-Npg-B5-Asp-Asp-Ala-[Me3AdamantC]-Lys-Phe-Leu-PyrS2-3Thi-BztA-Gln-NH2] | 113 nM |
| CC(=O)N1CCC[C@]12CC=CCCCC1(CCCC=CCCCOC(=O)N3CCC(C(=O)N[C@@H](Cc4ccsc4)C(=O)N[C@@H](Cc4csc5ccccc45)C(=O)N[C@@H](CCC(N)=O)C(N)=O)(CC3)NC(=O)[C@H](CC(C)C)NC(=O)[C@H](Cc3ccccc3)NC(=O)[C@H](C)NC(=O)[C@H](C)NC(=O)[C@H](Cc3cccc(C(=O)O)c3)NC(=O)[C@H](CC(=O)O)NC1=O)NC(=O)[C@H](CC(C)(C)C)NC(=O)[C@H](CC(=O)O)NC2=O (stereo partly drawn) [I-2588, Ac-PL3-Asp-Npg-B5-Asp-3COOHF-Ala-Ala-Phe-Leu-SPip2-3Thi-BztA-Gln-NH2] | 26 nM |
| CC(=O)N1CCC[C@]12CC=CCCCC1(CCCC=CCCCOC(=O)N3CC[C@@](C(=O)N[C@@H](Cc4ccsc4)C(=O)N[C@@H](Cc4c[nH]c5ccccc45)C(=O)N[C@@H](CCC(N)=O)C(N)=O)(C3)NC(=O)[C@H](CC(N)=O)NC(=O)[C@H](Cc3ccccc3)NC(=O)[C@H](C)NC(=O)[C@H](C)NC(=O)[C@H](CC(=O)O)NC(=O)[C@H](CC(=O)O)NC1=O)NC(=O)[C@H](CC(C)(C)C)NC(=O)[C@H](CC(=O)O)NC2=O (stereo partly drawn) [I-2175, Ac-PL3-Asp-Npg-B5-Asp-Asp-Ala-Ala-Phe-Asn-PyrS2-3Thi-Trp-Gln-NH2] | 19 nM |
| CC(=O)N1CCC[C@]12CC=CCCCC1(CCCC=CCOC(=O)N(C)CC[C@@](C)(C(=O)N[C@@H](Cc3ccsc3)C(=O)N[C@@H](Cc3csc4ccccc34)C(=O)N[C@@H](CCC(N)=O)C(N)=O)NC(=O)[C@H](CC(C)C)NC(=O)[C@H](Cc3ccccc3)NC(=O)[C@H](C)NC(=O)[C@H](C)NC(=O)[C@H](CC(=O)O)NC(=O)[C@H](CC(=O)O)NC1=O)NC(=O)[C@H](CC(C)(C)C)NC(=O)[C@H](CC(=O)O)NC2=O (stereo partly drawn) [I-1830, Ac-PL3-Asp-Npg-B5-Asp-Asp-Ala-Ala-Phe-Leu-SdN-3Thi-BztA-Gln-NH2] | 313 nM |
| CC(=O)N1CCC[C@]12CC=CCCCC1(CCCC=CCCCOC(=O)N3CC(C(=O)N[C@@H](Cc4ccccc4C(F)(F)F)C(=O)N[C@@H](Cc4csc5ccccc45)C(=O)N[C@@H](CCC(N)=O)C(N)=O)(C3)NC(=O)[C@H](CC(C)C)NC(=O)[C@H](Cc3ccccc3)NC(=O)[C@H](C)NC(=O)C(C)(C)NC(=O)[C@H](Cc3cccc(C(=O)O)c3)NC(=O)[C@H](CC(=O)O)NC1=O)NC(=O)[C@H](CC(C)(C)C)NC(=O)[C@H](CC(=O)O)NC2=O (stereo partly drawn) [I-2613, Ac-PL3-Asp-Npg-B5-Asp-3COOHF-Aib-Ala-Phe-Leu-Az2-2F3MeF-BztA-Gln-NH2] | 183 nM |
